Data from PubChem BioAssay AID330 (DTP/NCI, 2004).
Values joined by “and” are separate entries in the source; they are usually repeats but may differ in a detail not shown here. Identical values can stand only once. Toxic doses and inconclusive results are not listed.

System: P388 leukemia ip, CD2F1 mice, survival T/C
Assay: NCI In Vivo Anticancer Drug Screen. Data for tumor model P388 Leukemia (intraperitoneal) in CD2F1 (CDF1) mice
Conditions: endpoint: median survival time, higher = longer survival
Summary of the method: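 Mice carrying the transplanted tumor received test compound or vehicle. Survival was recorded in each group, and the value is the treated-group measurement divided by that of the vehicle-treated control group.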

[1] = dose: 12.5 mg/kg/injection, schedule: Q01DX005 (ip), vehicle: saline with Tween-80
[2] = dose: 50.0 mg/kg/injection, schedule: Q01DX005 (ip), vehicle: saline with Tween-80
[3] = dose: 100.0 mg/kg/injection, schedule: Q01DX005 (ip), vehicle: saline with Tween-80
[4] = dose: 100.0 mg/kg/injection, schedule: Q04DX002 (ip), vehicle: saline
[5] = dose: 50.0 mg/kg/injection, schedule: Q01DX009 (ip), vehicle: saline with Tween-80
[6] = dose: 100.0 mg/kg/injection, schedule: Q01DX009 (ip), vehicle: saline with Tween-80
[7] = dose: 200.0 mg/kg/injection, schedule: Q01DX009 (ip), vehicle: saline with Tween-80
[8] = dose: 50.0 mg/kg/injection, schedule: Q01DX005 (ip), vehicle: Klucel (hydroxypropylcellulose) (HPC)
[9] = dose: 100.0 mg/kg/injection, schedule: Q01DX005 (ip), vehicle: Klucel (hydroxypropylcellulose) (HPC)
[10] = dose: 200.0 mg/kg/injection, schedule: Q01DX005 (ip), vehicle: Klucel (hydroxypropylcellulose) (HPC)
[11] = dose: 25.0 mg/kg/injection, schedule: Q01DX001 (ip), vehicle: Klucel (hydroxypropylcellulose) (HPC)
[12] = dose: 50.0 mg/kg/injection, schedule: Q01DX001 (ip), vehicle: Klucel (hydroxypropylcellulose) (HPC)
[13] = dose: 25.0 mg/kg/injection, schedule: Q01DX009 (ip), vehicle: Klucel (hydroxypropylcellulose) (HPC)
[14] = dose: 50.0 mg/kg/injection, schedule: Q01DX009 (ip), vehicle: Klucel (hydroxypropylcellulose) (HPC)
[15] = dose: 100.0 mg/kg/injection, schedule: Q01DX009 (ip), vehicle: Klucel (hydroxypropylcellulose) (HPC)
[16] = dose: 60.0 mg/kg/injection, schedule: Q01DX005 (ip), vehicle: Klucel (hydroxypropylcellulose) (HPC)
[17] = dose: 120.0 mg/kg/injection, schedule: Q01DX005 (ip), vehicle: Klucel (hydroxypropylcellulose) (HPC)
[18] = dose: 240.0 mg/kg/injection, schedule: Q01DX005 (ip), vehicle: Klucel (hydroxypropylcellulose) (HPC)

`CCSc1nc(Cl)cc(Sc2nc(N)nc3nc[nH]c23)n1` was tested, and the T/C (dose: 12.0 mg/kg/injection, schedule: Q01DX009 (ip), vehicle: saline with Tween-80) was 90 % of control, the T/C (dose: 18.0 mg/kg/injection, schedule: Q01DX009 (ip), vehicle: saline with Tween-80) was 90 % of control and the T/C (dose: 26.0 mg/kg/injection, schedule: Q01DX009 (ip), vehicle: saline with Tween-80) was 100 % of control. For the same compound, the T/C (dose: 40.0 mg/kg/injection, schedule: Q01DX009 (ip), vehicle: saline with Tween-80) was 104 % of control, the T/C (dose: 60.0 mg/kg/injection, schedule: Q01DX009 (ip), vehicle: saline with Tween-80) was 100 % of control and the T/C (dose: 88.0 mg/kg/injection, schedule: Q01DX009 (ip), vehicle: saline with Tween-80) was 90 % of control. The T/C (dose: 132.0 mg/kg/injection, schedule: Q01DX009 (ip), vehicle: saline with Tween-80) was 86 % of control.
In the case of `O=c1c2ccccc2sc2cccc(NCCN3CCC(C4CCN(CCNc5cccc6sc7ccccc7c(=O)c56)CC4)CC3)c12`, the T/C (dose: 6.25 mg/kg/injection, schedule: Q01DX005 (ip), vehicle: saline with Tween-80) is reported as 105 % of control, the T/C [1] is reported as 90 % of control and the T/C [2] is reported as 96 % of control. For the same compound, the T/C [3] was 92 % of control.
For `CCCn1c(C)nc2cc(C)cc(N)c21`, the T/C [1] was 100 % of control, the T/C (dose: 25.0 mg/kg/injection, schedule: Q01DX005 (ip), vehicle: saline with Tween-80) was 89 % of control and the T/C [2] was 90 % of control and 94 % of control.
`CN1CCc2nc[nH]c2C1` was tested, and the T/C [4] was 97 % of control, the T/C (dose: 200.0 mg/kg/injection, schedule: Q04DX002 (ip), vehicle: saline) was 101 % of control and the T/C (dose: 400.0 mg/kg/injection, schedule: Q04DX002 (ip), vehicle: saline) was 99 % of control.
For `O=C(Nc1cccc2c(OC(=O)C(Cl)Cl)c(N=Nc3ccc(S(=O)(=O)Nc4nccs4)cc3)cc(N=Nc3ccc(S(=O)(=O)Nc4nccs4)cc3)c12)C(Cl)Cl`, the T/C [5] was 109 % of control and 100 % of control and 104 % of control, the T/C [6] was 108 % of control and 103 % of control and 106 % of control and the T/C [7] was 107 % of control.
In the case of `CC(C)C(C(F)C(=O)OCc1ccccc1)N(Cc1ccccc1)Cc1ccccc1` (centres undefined), the T/C [8] is reported as 98 % of control, the T/C [9] is reported as 91 % of control and the T/C [10] is reported as 89 % of control.
With `COc1cc2cc(-c3ccc4c(c3)OCO4)[n+](C)cc2cc1OC` the T/C (dose: 6.25 mg/kg/injection, schedule: Q01DX001 (ip), vehicle: Klucel (hydroxypropylcellulose) (HPC)) was 100 % of control, the T/C (dose: 12.5 mg/kg/injection, schedule: Q01DX001 (ip), vehicle: Klucel (hydroxypropylcellulose) (HPC)) was 107 % of control and the T/C [11] was 110 % of control. For the same compound, the T/C [12] was 96 % of control.
`CN(C)C1=CC(=S)NC2CCCCC12` (centres undefined) was tested, and the T/C [8] was 99 % of control, the T/C [9] was 95 % of control and the T/C [10] was 102 % of control.
For `COc1cc2c(O)c3c(c(-c4ccc5c(c4)OCO5)c2cc1OC)C(=O)OC3`, the T/C [13] was 91 % of control, the T/C [14] was 100 % of control and the T/C [15] was 100 % of control. The T/C (dose: 200.0 mg/kg/injection, schedule: Q01DX009 (ip), vehicle: Klucel (hydroxypropylcellulose) (HPC)) was 117 % of control.
With `Cc1ccc2[nH]c(N(C)C)nc2c2nc(Cl)nc1-2` the T/C (dose: 8.25 mg/kg/injection, schedule: Q01DX005 (ip), vehicle: saline) was 108 % of control, the T/C (dose: 16.5 mg/kg/injection, schedule: Q01DX005 (ip), vehicle: saline) was 103 % of control and the T/C (dose: 33.0 mg/kg/injection, schedule: Q01DX005 (ip), vehicle: saline) was 100 % of control. For the same compound, the T/C (dose: 66.0 mg/kg/injection, schedule: Q01DX005 (ip), vehicle: saline) was 97 % of control.
For `CC1(C)Nc2cccc3c(N=Nc4ccc(N=Nc5ccccc5)c5ccccc45)ccc(c23)N1`, the T/C (dose: 25.0 mg/kg/injection, schedule: Q01DX009 (ip), vehicle: saline with Tween-80) was 120 % of control and 95 % of control and 97 % of control, the T/C [5] was 101 % of control and 103 % of control and 112 % of control and the T/C [6] was 104 % of control and 123 % of control and 91 % of control. For the same compound, the T/C [7] was 94 % of control and 95 % of control.
`CC1(Br)CN(C(=S)Nc2ccccc2)C1=O` (centres undefined) was tested, and the T/C [2] was 108 % of control, the T/C [3] was 105 % of control and the T/C (dose: 200.0 mg/kg/injection, schedule: Q01DX005 (ip), vehicle: saline with Tween-80) was 104 % of control.
With `CSC(=S)n1nc(C)c(N=Nc2ccc(F)cc2)c1C` the T/C (dose: 100.0 mg/kg/injection, schedule: Q01DX001 (ip), vehicle: saline with Tween-80) was 92 % of control, the T/C (dose: 200.0 mg/kg/injection, schedule: Q01DX001 (ip), vehicle: saline with Tween-80) was 92 % of control and the T/C (dose: 400.0 mg/kg/injection, schedule: Q01DX001 (ip), vehicle: saline with Tween-80) was 97 % of control.
For `CCOC(=O)/N=c1/nc2ccn(C)c2c(NC(=O)OCC)s1`, the T/C (dose: 100.0 mg/kg/injection, schedule: Q04DX003 (ip), vehicle: saline with Tween-80) was 99 % of control, the T/C (dose: 200.0 mg/kg/injection, schedule: Q04DX003 (ip), vehicle: saline with Tween-80) was 96 % of control and the T/C (dose: 400.0 mg/kg/injection, schedule: Q04DX003 (ip), vehicle: saline with Tween-80) was 96 % of control.
For `Fc1ccc2nc3ccccc3c(SCCNCCSc3c4ccccc4nc4ccc(F)cc34)c2c1`, the T/C (dose: 60.0 mg/kg/injection, schedule: Q01DX005 (ip), vehicle: saline with Tween-80) was 97 % of control and the T/C (dose: 120.0 mg/kg/injection, schedule: Q01DX005 (ip), vehicle: saline with Tween-80) was 89 % of control.
In the case of `O=c1nc2c3[nH]cnc3ncn2o1`, the T/C (dose: 12.5 mg/kg/injection, schedule: Q01DX009 (ip), vehicle: Klucel (hydroxypropylcellulose) (HPC)) is reported as 101 % of control, the T/C [13] is reported as 106 % of control and the T/C [14] is reported as 101 % of control and 93 % of control. For the same compound, the T/C [15] was 105 % of control.
With `COc1ccc(N=Nc2ccc(N(CCCl)CCCl)cc2)cc1` the T/C [11] was 106 % of control, the T/C [12] was 108 % of control and the T/C (dose: 100.0 mg/kg/injection, schedule: Q01DX001 (ip), vehicle: Klucel (hydroxypropylcellulose) (HPC)) was 110 % of control.
In the case of `Cc1no[n+]([O-])c1C(=O)NN`, the T/C [16] is reported as 103 % of control, the T/C [17] is reported as 94 % of control and the T/C [18] is reported as 100 % of control.
`CC(ON)C(=O)O` (centres undefined) was tested, and the T/C (dose: 6.25 mg/kg/injection, schedule: Q01DX005 (ip), vehicle: saline) was 96 % of control, the T/C (dose: 12.5 mg/kg/injection, schedule: Q01DX005 (ip), vehicle: saline) was 102 % of control and the T/C (dose: 25.0 mg/kg/injection, schedule: Q01DX005 (ip), vehicle: saline) was 102 % of control. For the same compound, the T/C (dose: 50.0 mg/kg/injection, schedule: Q01DX005 (ip), vehicle: saline) was 99 % of control.
In the case of `CCOC(=O)C(Cc1c[nH]c2ccccc12)NC(=O)C1(O)C(O)C2(CC)C=CCN3CCC4(c5cc(C6(C(=O)OC)CC7CC(CC)CN(CCc8c6[nH]c6ccccc86)C7)c(OC)cc5N(C)C14)C32` (centres undefined), the T/C (dose: 2.0 mg/kg/injection, schedule: Q01DX001 (ip), vehicle: saline) is reported as 99 % of control, the T/C (dose: 4.0 mg/kg/injection, schedule: Q01DX001 (ip), vehicle: saline) is reported as 118 % of control and the T/C (dose: 16.0 mg/kg/injection, schedule: Q01DX001 (ip), vehicle: saline) is reported as 169 % of control. The T/C (dose: 32.0 mg/kg/injection, schedule: Q01DX001 (ip), vehicle: saline) was 179 % of control and the T/C (dose: 64.0 mg/kg/injection, schedule: Q01DX001 (ip), vehicle: saline) was 178 % of control.
For `COc1cc(NS(=O)(=O)c2ccccc2)c2nc3ccc(Cl)cc3nc2c1`, the T/C [16] was 96 % of control, the T/C [17] was 90 % of control and the T/C [18] was 89 % of control.
`C(=NCCN=Cc1ccccc1)c1ccccc1` was tested, and the T/C [7] was 95 % of control and the T/C (dose: 400.0 mg/kg/injection, schedule: Q01DX009 (ip), vehicle: saline with Tween-80) was 87 % of control.
In the case of `CN(C)c1ccc(C(Cl)[O][Sn]([CH3])([CH3])[Cl])cc1` (centres undefined), the T/C (dose: 12.5 mg/kg/injection, schedule: Q04DX002 (ip), vehicle: saline with Tween-80) is reported as 106 % of control and 116 % of control, the T/C (dose: 12.5 mg/kg/injection, schedule: Q04DX002 (ip), vehicle: saline) is reported as 110 % of control and the T/C (dose: 25.0 mg/kg/injection, schedule: Q04DX002 (ip), vehicle: saline with Tween-80) is reported as 101 % of control and 106 % of control. For the same compound, the T/C (dose: 25.0 mg/kg/injection, schedule: Q04DX002 (ip), vehicle: saline) was 115 % of control, the T/C (dose: 50.0 mg/kg/injection, schedule: Q04DX002 (ip), vehicle: saline with Tween-80) was 116 % of control and 120 % of control and the T/C (dose: 50.0 mg/kg/injection, schedule: Q04DX002 (ip), vehicle: saline) was 100 % of control. For the same compound, the T/C [4] was 98 % of control.
